The target in one assay is AMPA receptor. In words: AMPA receptor binding affinity (as described by T. Honoré et al., Neuroscience Letters 54, 27-32 (1985)). The following applies: binding affinity for the AMPA receptor.
For assay [1], the system named is AMPA-induced clonic seizures. In words: In vivo AMPA seizure test (AMPA-induced clonic seizures). More on the design: species or system female NMRI mice. The following applies: Mus musculus; dose inhibiting 50% of the mice from having clonic seizures; test compound i.v. 5 min (or p.o. 30 min) before 0.3 µg icv AMPA; route not given. As to the method:
Also compounds of the present invention when adminestered i.v. or i.p. in the in vivo AMPA seizure test as described below inhibit the clonic seizures induced by AMPA.
AMPA given icv (intracerebroventricular) (15 µg/kg) NMRI to mice induces clonic seizures which should be inhibited by non-NMDA receptor antagonists. Method: Test compound was given i.v. 5 min (or p.o. 30 min) before a 0.3 µg icv administration of AMPA to 10 female NMRI mice (weighing 24-26 g) per dose. The number of mice experiencing clonic seizures within the next 5 min was noted. An ED50 value was calculated as the dose inhibiting 50% of the mice from having clonic seizures.

The values below come from patent EP0698025B1, “AMPA ANTAGONISTS AND A METHOD OF TREATMENT THEREWITH” (NEUROSEARCH A/S, priority 1993, dated 1994).

`CN1Cc2c(-c3ccc([N+](=O)[O-])cc3)cc3[nH]c(=O)c(=O)[nH]c3c2C1` [Compound 3] yielded a concentration for half-maximal inhibition (IC50) on AMPA receptor of 600 nM. On AMPA receptor, `CN1CCc2c(-c3ccccc3)cc3c(c2C1)NC(=O)C3=NO` [Compound 9, 8-methyl-5-phenyl-6,7,8,9-tetrahydro-1H-pyrrolo[3,2-h]isoquinoline-2,3-dione 3-oxime] returned an IC50 of 200 nM. `CN1CCc2c(-c3ccc([N+](=O)[O-])cc3)cc3c(c2C1)NC(=O)C3=NO` [Compound 10, 8-methyl-5-(4-nitrophenyl)-6,7,8,9-tetrahydro-1H-pyrrolo[3,2-h]isoquinoline-2,3-dione 3-oxime] showed a half-inhibitory concentration (IC50) on AMPA receptor of 150 nM. The molecule further showed an ED50 in assay [1] of 5 mg/kg. The molecule `CCN1Cc2c(-c3ccccc3)cc3c(c2C1)NC(=O)C3=NO` [Compound 13] came in with an IC50 at AMPA receptor of 100 nM.
